The source of these data is patent US7947834B2, “Substituted quinoxalines, their preparation and their therapeutical use as 11βHSD1 modulators” (Sanofi-Aventis, priority 2006, dated 2011).

Structures can show the parent of a compound that is named as a salt.

The target in one series is T1, 11βHSD1 in the eyes (Homo sapiens, UniProt P28845).
T1 construct: host or cells: eyes of healthy volunteers (in vivo)
To be noted: healthy volunteers, after treating for seven days; cited from earlier work.

Series [1] concerns the target T2, recombinant 11β-HSD1 protein (Homo sapiens, UniProt P28845).
T2 construct: made in house; host or cells: Saccharomyces cerevisiae
The series is described as follows: 11β-HSD1 SPA (Scintillation Proximity Assay) enzyme inhibition test, 384-well format. The series is classed as biochemical. Conditions: 3H-cortisone and NADPH; cortisol formed measured by SPA; read-out: IC50 (concentration which inhibits 50% of the activity of 11β-HSD1). An excerpt: The compounds according to the invention formed the subject of pharmacological tests which make it possible to determine their inhibiting effect on the 11β-HSD1 enzyme, which is an enzyme which is involved in the metabolism of lipids or the metabolism of glucose.
These tests consisted in measuring the in vitro inhibiting activity of the compounds of the invention by virtue of an SPA (Scintillation Proximity Assay) test in 384-well format. The recombinant 11β-HSD1 protein was produced in the yeast S. cerevisiae. The reaction was carried out by incubating the enzyme in the presence of ^3H-cortisone and of NADPH, in the absence or in the presence of an increasing concentration of inhibitor. SPA beads coupled to an antimouse antibody, which are preincubated with anticortisol antibody, made it possible to measure the amount of cortisol formed during the reaction.
The inhibiting activity with regard to the enzyme 11β-HSD1 is given by the concentration which inhibits 50% of the activity of 11β-HSD1 (IC50).
For orientation: In a scintillation proximity assay essentially only radioactivity close to the scintillant gives light.

T2 sequence (P28845 whole entry, species assumed): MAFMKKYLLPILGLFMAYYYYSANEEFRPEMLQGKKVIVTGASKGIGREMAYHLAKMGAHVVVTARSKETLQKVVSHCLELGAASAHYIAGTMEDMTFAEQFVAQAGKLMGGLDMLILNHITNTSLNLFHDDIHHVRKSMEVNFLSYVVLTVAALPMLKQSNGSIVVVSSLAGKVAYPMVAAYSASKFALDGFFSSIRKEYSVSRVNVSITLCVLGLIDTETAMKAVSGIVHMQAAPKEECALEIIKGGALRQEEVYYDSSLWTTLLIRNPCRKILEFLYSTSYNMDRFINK
T1 sequence (P28845 whole entry): as the sequence (P28845 whole entry, species assumed) above

`CN(C)C(=O)N1CCN(C(=O)N2CCC(c3cccnc3)C2)c2ccccc21.Cl` (centres unmarked) returned a melting point of 181 °C.
`CCCCN1CCN(C(=O)N2CCC(c3cccnc3)C2)c2ccccc21.Cl` (centres unmarked) gave a melting point of 191 °C.
In turn, `CC(=O)N1CCN(C(=O)N2CCC(c3cccnc3)C2)c2ccccc21.Cl` (centres unmarked) had a melting point of 201 °C.
On the same count and under the same terms, with `N#CC1(c2ccccc2)CCN(C(=O)N2CCCc3ccccc32)CC1` the figure was 53 to 59 °C; with `Cl.O=C(N1CCC(c2cccnc2)C1)N1CCOc2ccccc21` (centres unmarked), 60 to 90 °C; with `Cl.O=C(N1CCC(c2cccnc2)C1)N1CCOc2ccc(CO)cc21` (centres unmarked), 273 °C.
In the case of `CCCN1CCN(C(=O)N2CCC(c3cccnc3)C2)c2ccccc21` (centres unmarked) (as salt: HCl) [compound 101], the melting point stood at 121 °C.
On to `CC1(C)[C@@H](OC(=O)CCC(=O)O)CC[C@]2(C)[C@H]3C(=O)C=C4[C@@H]5C[C@@](C)(C(=O)O)CC[C@]5(C)CC[C@@]4(C)[C@]3(C)CC[C@@H]12` [carbenoxolone], for which the “reduction of the intraocular pressure (IOP)” value on 11βHSD1 in the eyes is recorded as 18%.
Turning to `Cl.O=C(N1CCC(c2ccncc2)CC1)N1CCCc2ccccc21` [compound 4, 1-[(4-(Pyridin-4-yl)piperidin-1-yl)carbonyl]-1,2,3,4-tetrahydroquinoline Hydrochloride], the melting point came out at 198 °C. Also, the IC50 in series [1] came to 115 nM.
Compound `O=C(N1CCC2(C=Cc3ccccc32)CC1)N1CCCc2ccccc21` [compound 15, 1′-(3,4-Dihydroquinolin-1(2H)-ylcarbonyl)spiro[indene-1,4′-piperidine]] returned a melting point of 130 to 133 °C.
Take `O=C(N1CCC2(CCCc3ccccc32)CC1)N1CCCc2ccccc21` [compound 18]: the melting point was in the range of 52 to 65 °C. Also, the IC50 in series [1] is 43 nM.
For `O=C(N1CCC(c2nc(-c3c(Cl)cccc3Cl)no2)CC1)N1CCCc2ccccc21` [compound 25, 1-({4-[3-(2,6-Dichlorophenyl)-1,2,4-oxadiazol-5-yl]piperidin-1-yl}carbonyl)-1,2,3,4-tetrahydroquinoline], the melting point fell in the range of 63 to 68 °C.
Take `COc1cc(N2CCN(C(=O)N3CCC(c4cn[nH]c4)C3)c3ccccc32)ccc1C(=O)NC1CC1` (centres unmarked) [compound 78]: the IC50 in series [1] was 39 nM.
In the case of `CCCN1CCN(C(=O)N2CCC(c3cccnc3)C2)c2ccccc21` (centres unmarked) [compound 101], in series [1], the IC50 worked out at 90 nM.
Compound `CS(=O)(=O)c1ccc(CN2CCN(C(=O)N3CCC(c4cn[nH]c4)C3)c3ccccc32)cc1` (centres unmarked) [compound 161, [4-(4-(Methanesulfonyl)benzyl)-3,4-dihydro-2H-quinoxalin-1-yl][3-(1H-pyrazol-4-yl)pyrrolidin-1-yl]methanone] gave a melting point of 239 °C.
Compound `N#Cc1cccc(CN2CCN(C(=O)N3CCC(c4cn[nH]c4)C3)c3ccccc32)c1` (centres unmarked) [compound 162] gave a melting point of 174 °C. Besides, in series [1], the IC50 is 57 nM.
With `O=C(NN1CCCCC1)c1ccc(N2CCN(C(=O)N3CCC(c4cn[nH]c4)C3)c3ccccc32)cc1` (centres unmarked) [compound 172, N-(Piperidin-1-yl)-4-{4-[3-(1H-pyrazol-4-yl)pyrrolidine-1-carbonyl]-3,4-dihydro-2H-quinoxalin-1-yl}benzamide], the melting point was 251 °C.
The compound `COc1cc(N2CCN(C(=O)N3CCC(c4cn[nH]c4)C3)c3ccccc32)ccc1C(=O)NC1CC1` (centres unmarked) [compound 178, N-Cyclopropyl-2-methoxy-4-{4-[3-(1H-pyrazol-4-yl)pyrrolidine-1-carbonyl]-3,4-dihydro-2H-quinoxalin-1-yl}benzamide] yielded a melting point of 100 °C.
Take `NC(=O)c1ccc(N2CCN(C(=O)N3CCC(c4cn[nH]c4)C3)c3ccccc32)cn1` (centres unmarked) [compound 188]: the melting point is 90 °C. Also, the IC50 in series [1] came to 130 nM.

As usually defined, the melting point is the temperature, or range, at which the solid turns liquid.
